Data: US20120214822A1 (ASTRAZENECA AB, priority 2007, published 2012)
Where a name gives a salt, the structure may show the parent alone.

Target: human active recombinant p38α-6His tagged (Homo sapiens, UniProt Q16539)
Experiment: P38 Alpha Enzyme Assay (AlphaScreen, biotinylated-ATF2 substrate);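 further: 0.5 nM final p38α, reaction started with ATP and run 45 min at 37 °C, phospho-ATF2 read by antibody-based AlphaScreen, background wells quenched with EDTA before ATP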
Type: biochemical
Details: p38 alpha enzyme inhibition; means of replicate determinations; 4 h pre-incubation at 37° C.; SD of assay 0.2-0.3 log units

Chain of human active recombinant p38α-6His tagged (Q16539 whole entry): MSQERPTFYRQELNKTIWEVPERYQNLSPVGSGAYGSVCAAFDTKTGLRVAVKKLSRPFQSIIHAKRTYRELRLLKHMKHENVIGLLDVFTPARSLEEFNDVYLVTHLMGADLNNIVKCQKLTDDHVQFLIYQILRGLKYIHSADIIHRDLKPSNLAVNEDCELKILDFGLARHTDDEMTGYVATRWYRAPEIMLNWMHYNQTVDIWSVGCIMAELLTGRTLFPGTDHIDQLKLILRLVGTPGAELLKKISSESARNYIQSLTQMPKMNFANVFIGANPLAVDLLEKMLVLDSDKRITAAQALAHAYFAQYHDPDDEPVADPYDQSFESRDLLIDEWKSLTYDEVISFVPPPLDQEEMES

Q: How did the pIC50 turn out when `CONC(=O)c1ccc(C)c(-n2ccnc(N[C@@H](c3ccccc3)[C@@H](C)CN3CCOCC3)c2=O)c1` [Example 160, N-Methoxy-4-methyl-3-[3-[[(1R,2S)-2-methyl-3-(4-morpholinyl)-1-phenylpropyl]amino]-2-oxo-1(2H)-pyrazinyl]-benzamide] was run?
A: 9.8

Q: With `Cc1ccc(C(=O)NC2CC2)cc1-n1ccnc(NCC2CCOCC2)c1=O` [Example 90, N-Cyclopropyl-4-methyl-3-[2-oxo-3-[[(tetrahydro-2H-pyran-4-yl)methyl]amino]-1(2H)-pyrazinyl]-benzamide] as the compound, how does the pIC50 read?
A: 6.4

Q: How did the pIC50 turn out when `Cc1ccc(C(=O)NC2CC2)cc1-n1ccnc(NCc2ccccc2CN2CCN(C)CC2)c1=O` [Example 41, N-Cyclopropyl-4-methyl-3-[3-[[[2-[(4-methyl-1-piperazinyl)methyl]phenyl]methyl]amino]-2-oxo-1(2H)-pyrazinyl]-benzamide] was run?
A: 7

Q: Which IC50 does the source give for `Cc1ccc(C(=O)NC2CC2)cc1-n1ccnc(NCC2(c3ccccc3)CCN(C)CC2)c1=O` [Example 35, N-Cyclopropyl-4-methyl-3-[3-[[(1-methyl-4-phenyl-4-piperidinyl)methyl]amino]-2-oxo-1(2H)-pyrazinyl]-benzamide] here?
A: 251 nM

Q: For `Cc1ccc(C(=O)NC2CC2)cc1-n1ccnc(N[C@@H](c2ccccc2)[C@@H](C)CN2CCNC(=O)C2)c1=O` [Example 178, N-Cyclopropyl-4-methyl-3-[3-[[(1R,2S)-2-methyl-3-(3-oxo-1-piperazinyl)-1-phenylpropyl]amino]-2-oxo-1(2H)-pyrazinyl]-benzamide], which pIC50 is on record?
A: 8.8

Q: For `Cc1ccc(C(=O)NC2CC2)cc1-n1ccnc(NC2(c3ccccc3OCCNC(C)C)CCC2)c1=O` [Example 271, N-Cyclopropyl-4-methyl-3-[3-[[1-[2-[2-[(1-methylethyl)amino]ethoxy]phenyl]cyclobutyl]amino]-2-oxo-1(2H)-pyrazinyl]-benzamide], which pIC50 is on record?
A: 9.9

Q: With `Cc1cccc(CCNc2nccn(-c3cc(C(=O)NC4CC4)ccc3C)c2=O)c1` [Example 73, N-Cyclopropyl-4-methyl-3-[3-[[2-(3-methylphenyl)ethyl]amino]-2-oxo-1(2H)-pyrazinyl]-benzamide] as the compound, how does the pIC50 read?
A: 7.1

Q: How did the pIC50 turn out when `CNCCOc1ccccc1C1CCCN1c1nccn(-c2cc(C(=O)NC3CC3)ccc2C)c1=O` (stereo not drawn) [Example 327, N-Cyclopropyl-4-methyl-3-[3-(2-{2-[2-(methylamino)ethoxy]phenyl}pyrrolidin-1-yl)-2-oxopyrazin-1(2H)-yl]benzamide Trifluoroacetate salt] was run?
A: 8

Q: Which pIC50 does the source give for `Cc1ccc(C(=O)NC2CC2)cc1-n1ccnc(N[C@@H](CO)c2ccccc2)c1=O` [Example 81, N-Cyclopropyl-3-[3-[[(1R)-2-hydroxy-1-phenylethyl]amino]-2-oxo-1(2H)-pyrazinyl]-4-methyl-benzamide] here?
A: 6.3

Q: For `CCc1ccc(C(=O)NC2CC2)cc1-n1ccnc(NC(C)(C)c2ccccc2OCCNCCO)c1=O` [Example 291, N-Cyclopropyl-4-ethyl-3-[3-{[1-(2-{2-[(2-hydroxyethyl)amino]ethoxy}phenyl)-1-methylethyl]amino}-2-oxopyrazin-1(2H)-yl]benzamide], which pIC50 is on record?
A: 8.5

Q: How did the pIC50 turn out when `CC[C@@H](Nc1nccn(-c2cc(C(=O)NOC)ccc2C)c1=O)c1ccccc1` [Example 113, N-Methoxy-4-methyl-3-[2-oxo-3-[[(1R)-1-phenylpropyl]amino]-1(2H)-pyrazinyl]-benzamide, trifluoroacetate] was run?
A: 9.8

Q: Which pIC50 does the source give for `CCN(C)CCOc1ccccc1C1(Nc2nccn(-c3cc(C(=O)NC4CC4)ccc3C)c2=O)CC1` [Example 241, N-Cyclopropyl-3-[3-[[1-[2-[2-(ethylmethylamino)ethoxy]phenyl]cyclopropyl]amino]-2-oxo-1(2H)-pyrazinyl]-4-methyl-benzamide] here?
A: 9.5

Q: With `Cc1ccc(C(=O)NC2CC2)cc1-n1ccnc(N[C@@H](c2ccccc2)[C@@H](C)CN2CCC(C(F)(F)F)CC2)c1=O` [Example 177, N-Cyclopropyl-4-methyl-3-[3-[[(1R,2S)-2-methyl-1-phenyl-3-[4-(trifluoromethyl)-1-piperidinyl]propyl]amino]-2-oxo-1(2H)-pyrazinyl]-benzamide] as the compound, how does the pIC50 read?
A: 9

Q: `Cc1c(F)cc(C(=O)NC2CC2)cc1-n1ccnc(NC2(c3ccccc3OCCNC(C)C)CC2)c1=O` [Example 264, N-Cyclopropyl-3-fluoro-4-methyl-5-[3-[[1-[2-[2-[(1-methylethyl)amino]ethoxy]phenyl]cyclopropyl]amino]-2-oxo-1(2H)-pyrazinyl]-benzamide] was tested. Which pIC50 did it give?
A: 10.1

Q: How did the pIC50 turn out when `Cc1ccc(C(=O)NC2CC2)cc1-n1ccnc(NCc2ccc(Oc3ccccc3)cc2)c1=O` [Example 45, N-Cyclopropyl-4-methyl-3-[2-oxo-3-[[(4-phenoxyphenyl)methyl]amino]-1(2H)-pyrazinyl]-benzamide] was run?
A: 6.5

Q: For `CNCCOc1ccccc1C1(Nc2nccn(-c3cc(C(=O)NC4CC4)ccc3C)c2=O)CCC1` [Example 268, N-Cyclopropyl-4-methyl-3-[3-[[1-[2-[2-(methylamino)ethoxy]phenyl]cyclobutyl]amino]-2-oxo-1(2H)-pyrazinyl]-benzamide], which pIC50 is on record?
A: 10

Q: With `Cc1ccc(C(=O)NC2CC2)cc1-n1ccnc(-c2ccccc2)c1=O` [Example 114, N-Cyclopropyl-4-methyl-3-(2-oxo-3-phenyl-1(2H)-pyrazinyl)-benzamide] as the compound, how does the pIC50 read?
A: 6.6

Q: `Cc1ccc(C(=O)NC2CC2)cc1-n1ccnc(N[C@@H](c2ccccc2)[C@@H](C)CN(C)C(C)(C)C)c1=O` [Example 154, N-Cyclopropyl-3-[3-[[(1R,2S)-3-[(1,1-dimethylethyl)methylamino]-2-methyl-1-phenylpropyl]amino]-2-oxo-1(2H)-pyrazinyl]-4-methyl-benzamide] was tested. Which pIC50 did it give?
A: 9

Q: For `Cc1ccc(C(=O)NC2CC2)cc1-n1ccnc(NCCc2ccc(O)cc2)c1=O` [Example 70, N-Cyclopropyl-3-[3-[[2-(4-hydroxyphenyl)ethyl]amino]-2-oxo-1(2H)-pyrazinyl]-4-methyl-benzamide], which pIC50 is on record?
A: 6.8

Q: For `Cc1ccc(C(=O)NC2CC2)cc1-n1ccnc(N[C@@H](c2cccc3ccccc23)[C@@H](C)CN2CCOCC2)c1=O` [Example 145, N-Cyclopropyl-4-methyl-3-[3-[[(1R,2S)-2-methyl-3-(4-morpholinyl)-1-(1-naphthalenyl)propyl]amino]-2-oxo-1(2H)-pyrazinyl]-benzamide], which pIC50 is on record?
A: 8.2

Q: With `CNCCOc1ccccc1C(C)(C)Nc1nccn(-c2cc(C(=O)NCCF)ccc2C)c1=O` [Example 225, N-(2-Fluoroethyl)-4-methyl-3-[3-[[1-methyl-1-[2-[2-(methylamino)ethoxy]phenyl]ethyl]amino]-2-oxo-1(2H)-pyrazinyl]-benzamide] as the compound, how does the pIC50 read?
A: 8.2

Q: Which pIC50 does the source give for `CCNCCOc1ccccc1C(C)(C)Nc1nccn(-c2cc(C(=O)NC3CC3)ccc2C)c1=O` [Example 198, N-Cyclopropyl-3-[3-[[1-[2-[2-(ethylamino)ethoxy]phenyl]-1-methylethyl]amino]-2-oxo-1(2H)-pyrazinyl]-4-methyl-benzamide] here?
A: 9.6

Q: Which pIC50 does the source give for `Cc1c(F)cc(C(=O)NC2CC2)cc1-n1ccnc(NC2(c3cc(F)ccc3OCCNCCO)CC2)c1=O` [Example 282, N-Cyclopropyl-3-fluoro-5-[3-{[1-(5-fluoro-2-{2-[(2-hydroxyethyl)amino]ethoxy}phenyl)cyclopropyl]amino}-2-oxopyrazin-1(2H)-yl]-4-methylbenzamide] here?
A: 10.3

Q: `CNCCCOc1ccccc1[C@H]1CCCN1c1nccn(-c2cc(C(=O)NC3CC3)ccc2C)c1=O` (single isomer, unassigned) [Example 325] was tested. Which IC50 did it give?
A: 1.26 nM
